Source: patent US6667387B1, “HCV core peptides” (priority 1992, dated 2003)
Ends that are not written are not given here.

Key:
[1] = test system: antibodies in sera from HCV-seropositive donors; experiment: ELISA with HCV antibody-positive sera (biotinylated peptides on streptavidin- or avidin-coated plates, unbiotinylated peptides coated directly); format: binding, human
Procedure, shortened: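 Read-out is OD at 450 nm after HRP goat anti-human Ig and TMB development, following 1 h at 37° C. with seropositive or negative sera diluted 1:100 (or 20-fold). Antigen was either unbiotinylated peptide adsorbed on plastic (pH 9.6 carbonate, 2–5 or 3 μg/ml) or biotinylated peptide at 1 μg/ml captured on streptavidin-coated wells, with casein blocking.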

[2] = ELISA with seronegative / negative control sera (specificity); format: binding, human
Procedure, shortened: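 Specificity readout is OD at 450 nm (HRP goat anti-human Ig, TMB/H2O2, sulfuric acid stop), with ≥0.250 counted positive. Seronegative donor sera (typically 1:100, 1 h, 37° C) were applied to casein-blocked wells coated with peptide directly or via streptavidin capture of biotinylated peptide.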

Question: What does the source list for PQRKTKRNTNRRPQDVKFPG?
Answer: optical density (450 nm) ([1]; Table 4C, serum 8241, 20-fold dilution): 0.444; optical density (450 nm) ([1]; Table 4C, serum 8242, 20-fold dilution): 1.682; optical density (450 nm) ([1]; Table 4C, serum 8243, 20-fold dilution): 2.181; optical density (450 nm) ([1]; Table 4C, serum 8247, 20-fold dilution): 1.518; optical density (450 nm) ([1]; Table 4C, serum 8250, 20-fold dilution): 0.110; optical density (450 nm) ([1]; Table 4C, serum 8271, 20-fold dilution): 0.912; optical density (450 nm) ([1]; Table 4C, serum 8273, 20-fold dilution): 2.468; optical density (450 nm) ([1]; Table 4C, serum 8274, 20-fold dilution): 2.700; optical density (450 nm) ([1]; Table 4C, serum 8275, 20-fold dilution): 1.489; optical density (450 nm) ([1]; Table 4C, serum 8276, 20-fold dilution): 2.133; optical density (450 nm) ([1]; Table 4C, serum 8277, 20-fold dilution): 1.771; optical density (450 nm) ([1]; Table 4C, serum 8278, 20-fold dilution): 1.907; optical density (450 nm) ([1]; Table 5, sample 8242 (positive), peptide concentration 0.01 micrograms per milliliter, listed as Unbiotinylated HCV peptide II): 0.051; optical density (450 nm) ([1]; Table 5, sample 8242 (positive), peptide concentration 0.03 micrograms per milliliter, listed as Unbiotinylated HCV peptide II): 0.048; optical density (450 nm) ([1]; Table 5, sample 8242 (positive), peptide concentration 0.1 micrograms per milliliter, listed as Unbiotinylated HCV peptide II): 0.058; optical density (450 nm) ([1]; Table 5, sample 8242 (positive), peptide concentration 0.3 micrograms per milliliter, listed as Unbiotinylated HCV peptide II): 0.234; optical density (450 nm) ([1]; Table 5, sample 8242 (positive), peptide concentration 1.0 micrograms per milliliter, listed as Unbiotinylated HCV peptide II): 0.408; optical density (450 nm) ([1]; Table 5, sample 8242 (positive), peptide concentration 3.0 micrograms per milliliter, listed as Unbiotinylated HCV peptide II): 0.539; optical density (450 nm) ([1]; Table 5, sample 8243 (positive), peptide concentration 0.01 micrograms per milliliter, listed as Unbiotinylated HCV peptide II): 0.056; optical density (450 nm) ([1]; Table 5, sample 8243 (positive), peptide concentration 0.03 micrograms per milliliter, listed as Unbiotinylated HCV peptide II): 0.057; optical density (450 nm) ([1]; Table 5, sample 8243 (positive), peptide concentration 0.1 micrograms per milliliter, listed as Unbiotinylated HCV peptide II): 0.181; optical density (450 nm) ([1]; Table 5, sample 8243 (positive), peptide concentration 0.3 micrograms per milliliter, listed as Unbiotinylated HCV peptide II): 0.831; optical density (450 nm) ([1]; Table 5, sample 8243 (positive), peptide concentration 1.0 micrograms per milliliter, listed as Unbiotinylated HCV peptide II): 1.221; optical density (450 nm) ([1]; Table 5, sample 8243 (positive), peptide concentration 3.0 micrograms per milliliter, listed as Unbiotinylated HCV peptide II): 1.341; optical density (450 nm) ([1]; Table 5, sample 8318 (positive), peptide concentration 0.01 micrograms per milliliter, listed as Unbiotinylated HCV peptide II): 0.048; optical density (450 nm) ([1]; Table 5, sample 8318 (positive), peptide concentration 0.03 micrograms per milliliter, listed as Unbiotinylated HCV peptide II): 0.095; optical density (450 nm) ([1]; Table 5, sample 8318 (positive), peptide concentration 0.1 micrograms per milliliter, listed as Unbiotinylated HCV peptide II): 0.181; optical density (450 nm) ([1]; Table 5, sample 8318 (positive), peptide concentration 0.3 micrograms per milliliter, listed as Unbiotinylated HCV peptide II): 0.347; optical density (450 nm) ([1]; Table 5, sample 8318 (positive), peptide concentration 1.0 micrograms per milliliter, listed as Unbiotinylated HCV peptide II): 0.626; optical density (450 nm) ([1]; Table 5, sample 8318 (positive), peptide concentration 3.0 micrograms per milliliter, listed as Unbiotinylated HCV peptide II): 0.791; optical density (450 nm) ([1]; Table 5, sample 8320 (positive), peptide concentration 0.01 micrograms per milliliter, listed as Unbiotinylated HCV peptide II): 0.479; optical density (450 nm) ([1]; Table 5, sample 8320 (positive), peptide concentration 0.03 micrograms per milliliter, listed as Unbiotinylated HCV peptide II): 1.272; optical density (450 nm) ([1]; Table 5, sample 8320 (positive), peptide concentration 0.1 micrograms per milliliter, listed as Unbiotinylated HCV peptide II): 1.828; optical density (450 nm) ([1]; Table 5, sample 8320 (positive), peptide concentration 0.3 micrograms per milliliter, listed as Unbiotinylated HCV peptide II): 2.004; optical density (450 nm) ([1]; Table 5, sample 8320 (positive), peptide concentration 1.0 micrograms per milliliter, listed as Unbiotinylated HCV peptide II): 2.163; optical density (450 nm) ([1]; Table 5, sample 8320 (positive), peptide concentration 3.0 micrograms per milliliter, listed as Unbiotinylated HCV peptide II): 2.278; optical density (450 nm) ([2]; Table 4C, negative serum): 0.047; optical density (450 nm) ([2]; Table 5, sample 1747 (negative), peptide concentration 0.01 micrograms per milliliter, listed as Unbiotinylated HCV peptide II): 0.041; optical density (450 nm) ([2]; Table 5, sample 1747 (negative), peptide concentration 0.03 micrograms per milliliter, listed as Unbiotinylated HCV peptide II): 0.043; optical density (450 nm) ([2]; Table 5, sample 1747 (negative), peptide concentration 0.1 micrograms per milliliter, listed as Unbiotinylated HCV peptide II): 0.044; optical density (450 nm) ([2]; Table 5, sample 1747 (negative), peptide concentration 0.3 micrograms per milliliter, listed as Unbiotinylated HCV peptide II): 0.041; optical density (450 nm) ([2]; Table 5, sample 1747 (negative), peptide concentration 1.0 micrograms per milliliter, listed as Unbiotinylated HCV peptide II): 0.046; optical density (450 nm) ([2]; Table 5, sample 1747 (negative), peptide concentration 3.0 micrograms per milliliter, listed as Unbiotinylated HCV peptide II): 0.049; optical density (450 nm) ([2]; Table 5, sample 1781 (negative), peptide concentration 0.01 micrograms per milliliter, listed as Unbiotinylated HCV peptide II): 0.046; optical density (450 nm) ([2]; Table 5, sample 1781 (negative), peptide concentration 0.03 micrograms per milliliter, listed as Unbiotinylated HCV peptide II): 0.053; optical density (450 nm) ([2]; Table 5, sample 1781 (negative), peptide concentration 0.1 micrograms per milliliter, listed as Unbiotinylated HCV peptide II): 0.046; optical density (450 nm) ([2]; Table 5, sample 1781 (negative), peptide concentration 0.3 micrograms per milliliter, listed as Unbiotinylated HCV peptide II): 0.045; optical density (450 nm) ([2]; Table 5, sample 1781 (negative), peptide concentration 1.0 micrograms per milliliter, listed as Unbiotinylated HCV peptide II): 0.053; optical density (450 nm) ([2]; Table 5, sample 1781 (negative), peptide concentration 3.0 micrograms per milliliter, listed as Unbiotinylated HCV peptide II): 0.053
